Data set [1] has as its system CD4+ T-cells in splenocytes isolated from FVIII-primed HA mice. Put plainly: FVIII-specific CD4+ T-cell proliferation assay. The settings on record: for effect of peptide on CD4+ T-cell proliferation (in words): peptides 0.1 μM to 10 μM; for CD4+ T-cell proliferation: 96 hours, background subtracted. Type of data set: cell-based, mouse. As for the experimental part:
(§1) CD4^+ T-cell Proliferation Assay. Mice with high titer anti-FVIII inhibitors were generated as described in the Supplemental Methods. Mouse splenocytes were isolated and stained with BD Horizon™ violet cell proliferation dye 450 (VPD450) (BD Biosciences). The labeled splenocytes were cultured and stimulated by adding FVIII as a positive proliferation control, Factor IX as a nonspecific antigen control, or peptides, either glycosylated or non-glycosylated, corresponding to site N2118. Mannan (0.1, 1, and 10 μM, respectively) was added in mannan inhibition experiments. After 96 hours, cells were stained with anti-mouse CD4 and Fixable Viability Stain (Fisher Scientific) and analyzed by flow cytometry (BDT LSR II analyzer (Fisher Scientific)). The enhancement of proliferation was calculated by subtracting the background levels in non-stimulated cells.
Generation of hemophilia A mice with high-titer inhibitors. Anti-FVIII inhibitor mice were generated by priming the mice with 3 units (U) of recombinant full-length FVIII in 200 uL PBS 3× a week for four weeks. Mice were then sacrificed on week 5 for spleen collection or boosted one-week prior to spleen collection. Blood was drawn via retro-orbital bleed on the day of sacrifice in the same manner as before in order to measure IgG titer via enzyme-linked immunosorbent assay (ELISA).

For data set [2], the system named is HA mice. Put plainly: FVIII functional activity (aPTT) and FVIII:Ag after hydrodynamic injection of BDD-FVIII and glycosylation variant plasmids. The data set is classed as in vivo, mouse. The settings on record: one-week post hydrodynamic plasmid injection, average ± SD. As for the experimental part:
(§2) Delivery of plasmids carrying BDD-FVIII and its glycosylation variants genes into HA mice. Male HA mice with a FVIII exon 16 knockout in an Sv129/BL6 mixed background between the ages of 8-14 weeks were used in all experiments. Mice were injected with liver-specific plasmids carrying BDD-FVIII and its glycosylation variants genes (FIG. 2) via hydrodynamic injection at a concentration of 25 μg/mL and a volume (ml) equal to 9% the body weight of the mouse (g). A second challenge (SC) of the same plasmids via hydrodynamic injection was performed on Day 86 to elicit robust secondary immune responses. Blood was collected by retro-orbital bleed in one-tenth volume of 3.8% sodium citrate periodically following plasmid injections.
FVIII antigen (FVIII:Ag) ELISA. FVIII:Ag levels in mouse plasma post hydrodynamic injection with FVIII plasmids were determined by ELISA using murine anti-FVIII antibody (GMA-8020, Green Mountain Antibody, Burlington, VT) and biotin-labeled murine anti-FVIII antibody (GMA-8015, Green Mountain Antibody, Burlington, VT).

Data set [3] relates to HA mice. Put plainly: Anti-FVIII inhibitor titers by Bethesda assay after plasmid-mediated gene transfer. The data set is classed as in vivo, mouse. On the procedure: as §2
For data set [4], the system named is HA mice. In words: Total anti-FVIII IgG ELISA after plasmid-mediated gene transfer. The data set is classed as in vivo, mouse. On the procedure: as §2
Supplemental Methods. Measurement of total anti-FVIII IgG. 96 well flat bottom ELISA plates (Corning, Kennebunk, ME) were coated overnight at 4° C. with 0.44 U FVIII/well in coating buffer. Plates were then incubated with blocking buffer (1×Tris-Buffered Saline (TBS), 0.1% Tween-20, and 20% non-fat milk for 1 hour at 37° C. Plates were washed three times with wash buffer I 1×TBS and 0.1% Tween-20) between incubation steps. […] Concentrations of anti-FVIII IgG were evaluated by interpolation against the linear range on a standard curve created using mouse isotype control (Thermo Scientific) that was run in duplicate alongside samples on all plates.
Background: In an ELISA, binding on a coated surface is turned into a signal by an enzyme label.

Data set [5] deals with CD4+ T-cells in splenocytes isolated from FVIII-primed HA mice. In words: Mannan inhibition in FVIII-specific T cell proliferation assay. Type of data set: cell-based, mouse. On the procedure:
as §1

From patent US20260091138A1, “VARIANTS OF COAGULATION FACTOR VIII AND USES THEREOF” (Seattle Children’s Hospital d/b/a Seattle Children’s …, priority 2022, published 2026) come the findings set out here.

Entries after “also recorded” stand apart in the source; their conditions may differ. No end group written: not given here. Man6GlcNAc2 = high-mannose N-glycan (six mannose on two GlcNAc); GlcNAc = N-acetyl-glucosamine (single GlcNAc)

Regarding “D2108GKKWQTYRGN2118STGT2122 (DGKKWQTYRGN(Man6GlcNAc2)STGT; also: mannosylated; UniProt P00451 2127-2141, looked up, fragment) [2118MP3, mannosylated overlapping 15-mer Peptide 3]”, the “effect of peptide on CD4+ T-cell proliferation (in words)” value (from here on “effect of peptide”) in data set [1] was “little to no proliferation”.
With “FIX: Factor IX as a nonspecific antigen control [reference compound]”, in data set [1] (increasing doses of FVIII, FIX as nonspecific antigen control), the “CD4+ T-cell proliferation response to protein antigen controls” value is recorded as “no response”.
For the substance “K2111WQTYRGN2118STGTLMV2125 (KWQTYRGN(GlcNAc)STGTLMV; UniProt P00451 2130-2144, looked up, fragment) [2118GlcP1, Peptide 1 with a single GlcNAc residue at N2118]”, the “effect of peptide” value in data set [1] was “negligible effects”.
Take “K2111WQTYRGN2118STGTLMV2125 (KWQTYRGNSTGTLMV; non-glycosylated; UniProt P00451 2130-2144, looked up, fragment) [2118NGP1, non-glycosylated 15-mer FVIII peptide centered around site N2118]”: the “effect of peptide” value was “negligible effects” in data set [1] and “negligible effects; also recorded: nearly no proliferation” in data set [1] (listed as NGP1).
On to K2111WQTYRGN2118STGTLMV2125 [2118MP1], for which the “CD4+ T-cell proliferation” value in data set [1] (peptide 10 μM) came to 4.2±1.3%. Also, the “effect of peptide” value in data set [1] (listed as MP1) was “increased proliferation levels; also recorded: Enhanced proliferation”.
For “N2118Q: BDD-FVIII plasmid variant with N2118Q mutation in the C1 domain eliminating the 2118 glycosylation site (SEQ ID NO: 23)”, the “FVIII functional activity levels in treated mouse plasma (average activity)” value in data set [2] was 223±77%. Also, the “inhibitor responses to FVIII following first plasmid challenge compared to WT BDD-FVIII plasmid” value in data set [3] (after first plasmid challenge) is recorded as “trend of decreased inhibitor responses”. Besides, the “inhibitor titer / inhibitor responses post-second challenge” value in data set [3] (after second plasmid challenge, compared with WT BDD-FVIII) is on record as “significantly lower inhibitor titer; also recorded: statistically significant lower inhibitor responses”. The “inhibitor titers (Bethesda assay) compared to other groups” value in data set [3] (day 56, after first plasmid transfer) is “lower inhibitor titers; also recorded: Low inhibitor titers”. The “anti-FVIII IgG level compared to the other three groups” value in data set [4] (peak around day 56, after first plasmid transfer) is “lower antibody levels; also recorded: lower IgG level”. In addition, the “drastic increase in anti-FVIII levels after the second challenge” value in data set [4] (second plasmid challenge on day 84, hydrodynamic injection) is “did not; also recorded: remained at a low level”.
Turning to “T2114YRGN2118STGTLMVFFG2128 (TYRGN(Man6GlcNAc2)STGTLMVFFG; also: mannosylated; UniProt P00451 2133-2147, looked up, fragment) [2118MP2, mannosylated overlapping 15-mer Peptide 2]”, the results for the “CD4+ T-cell proliferation” value in data set [1] (peptide 1 μM) and in data set [1] (peptide 10 μM) were 2.9±0.6% and 5.5±2.0%, respectively. In addition, the “effect of peptide” value in data set [1] (listed as MP2) was “Enhanced proliferation; also recorded: higher proliferation compared to MP1”.
For the substance “T2114YRGN2118STGTLMVFFG2128 (TYRGNSTGTLMVFFG; non-glycosylated; UniProt P00451 2133-2147, looked up, fragment) [2118NGP2, non-glycosylated counterpart of 2118MP2]”, in data set [1], the “effect of peptide” value was “nearly no proliferation”.
mannan: the “inhibition of T cell proliferation by mannan” value in data set [5] (in response to 0.1 U/ml FVIII) was “only partially inhibited”; in data set [5] (in response to 1 U/ml or 10 U/ml FVIII) it was “no inhibition”; in data set [5] (in response to MP1 at 0.1 and 1 μM), “inhibited”; in data set [5] (in response to all three concentrations of 2118MP1), “inhibited”.
